In paper PMC10042540, “Targeting oncogenic KRasG13C with nucleotide-based covalent inhibitors” (eLife, 2023):

Tests used:
[1] = tested on: Ras pathway (pcRaf, pAkt, pErk, pS6); assay: Electroporation into HeLa cells, western blot of downstream signalling; assay type: cell-based, human; settings: electroporation of 50-300 µg protein
Description: (§1) HeLa cells were obtained from the American Type Culture Collection (ATCC) and were cultured in DMEM medium (Gibco) supplemented with 10% fetal bovine serum (FBS) (PAN-Biotech) and 1% penicillin/streptomycin (Gibco). Cells were cultured in a humidified incubator at 37 °C in the presence of 5% CO2. The identity of the cells was validated by STR profiling and the cells were tested negative for mycoplasma contamination.
(§2) Electroporation of full-length KRas constructs (KRasWT, KRasG13C, KRasG13C-edaGDP, KRasG13C:acetyledaGDP and KRasG13C-edaGppCp) was performed based on the protocol described by [Alex et al., 2019] using the Neon Transfection System Kit (Thermo Fisher). For electroporation, 3 million cells per experiment were harvested by trypsinization, washed with PBS, and resuspended in 85 µL of the electroporation buffer R (Thermo Fisher). Increasing amounts of recombinant protein samples for each construct (0, 50, 100, 200 and 300 µg) were diluted 1:1 in buffer R followed by the addition of 30 µL of this protein master mix to the cell suspension. This cellular slurry was loaded into a […] Neon Pipette Tip (Thermo Fisher) and electroporated with 2x35 ms pulses at 1000 V. After electroporation, the cells were washed twice with PBS (15 mL) to remove non-internalized extracellular protein and the cell pellet was resuspended in 2 mL complete growth media. Cells were transferred into six-well tissue culture plates (Sarstedt) and incubated for 24 hr at 37 °C and 5% CO2 in a humidified incubator for recovery before being processed for western blotting analysis.
After recovery of the electroporation, cells were washed twice with ice-cold PBS and lysed in 100 µL of phosphatase and protease inhibitor containing RIPA buffer (Cell Signaling Technology). Cells were incubated on ice for 30 min and then harvested by scraping followed by centrifugation at 14,000 rpm for 10 min at 4 °C. Protein concentrations were determined using the Pierce BCA protein assay (Thermo) following the manufacturer’s recommended procedure. Equal amounts of protein (10 µg) were analyzed by SDS-PAGE and transferred to Immobilon-FL PVDF membranes (Merck Millipore) using Pierce 1-step transfer buffer (Thermo) and the Pierce Power Blotter (Thermo). Membranes were washed with ddH2O for 5 min, blocked with OdysseyBlocking Buffer TBS (Li-Cor) for 1 hr at room temperature and then incubated with primary antibodies diluted in OdysseyBlocking Buffer TBS overnight at 4 °C with gentle agitation. […] Quantification of protein levels from western blots was performed using Empiria Studio (Li-Cor) (Figure 3B, C, Figure 3—figure supplements 6–9).

pErkT202/Y204 = assay: Electroporation into HeLa cells, western blot quantification; assay type: cell-based, human; settings: for pErk mean fold change: mean of cell lysates
Description: as §1, §2
(§3) After recovery of the electroporation, cells were washed twice with ice-cold PBS and lysed in 100 µL of phosphatase and protease inhibitor containing RIPA buffer (Cell Signaling Technology). Cells were incubated on ice for 30 min and then harvested by scraping followed by centrifugation at 14,000 rpm for 10 min at 4 °C. Protein concentrations were determined using the Pierce BCA protein assay (Thermo) following the manufacturer’s recommended procedure. Equal amounts of protein (10 µg) were analyzed by SDS-PAGE and transferred to Immobilon-FL PVDF membranes (Merck Millipore) using Pierce 1-step transfer buffer (Thermo) and the Pierce Power Blotter (Thermo). Membranes were washed with ddH2O for 5 min, blocked with OdysseyBlocking Buffer TBS (Li-Cor) for 1 hr at room temperature and then incubated with primary antibodies diluted in OdysseyBlocking Buffer TBS overnight at 4 °C with gentle agitation. KRas (Sigma Aldrich, SAB1404011-100UG), pcRafS338 (CST, 9427), tAkt1 (CST, 2938), pAktS473 (CST, 4060), tErk (CST, 4696), pErkT202/Y204 (CST, 4370), pS6S235/236 (CST, 4858), and β-actin (CST, 4970/Sigma-Aldrich, A5441) antibodies were used to detect the individual proteins. After primary antibody incubation, membranes were washed three times with TBS-T (50 mM Tris, 150 mM NaCl, 0.05% Tween 20, pH 7.4) for 5 min before being incubated with secondary antibodies (anti-mouse IgG (H+L) (DyLight 680 Conjugate) (CST, 5470) / anti-rabbit IgG (H+L) (DyLight 800 4 X PEG Conjugate) (CST, 5151)) diluted in OdysseyBlocking Buffer TBS for 1 hr at room temperature with gentle agitation. After secondary antibody incubation, the membranes were washed three times for 5 min with TBS-T and then scanned using an OdysseyCLx imaging system (Li-Cor). Quantification of protein levels from western blots was performed using Empiria Studio (Li-Cor) (Figure 3B, C, Figure 3—figure supplements 6–9).

tAkt1 = assay: as above; assay type: cell-based, human; settings: for tAkt mean fold change: mean of cell lysates
Description: as §1, §2, §3

pS6S235/236 = assay: as above; assay type: cell-based, human; settings: for pS6 mean fold change: mean of cell lysates
Description: as §1, §2, §3

pAktS473 = assay: as above; assay type: cell-based, human; settings: for pAkt mean fold change: mean of cell lysates
Description: as §1, §2, §3

tErk = assay: as above; assay type: cell-based, human; settings: for tErk mean fold change: mean of cell lysates
Description: as §1, §2, §3

pcRafS338 = assay: as above; assay type: cell-based, human; settings: for pcRaf mean fold change: mean of cell lysates
Description: as §1, §2, §3

SOS = assay: Guanine nucleotide-exchange factor assay (mantdGDP fluorescence); assay type: biochemical; settings: 5 µM KRas1-169, 10 µM mantdGDP, 0.25 or 0.5 µM SOS
Description: SOS-catalysed nucleotide exchange was monitored at 25 °C in a FluoroMax-3 spectrofluorometer (excitation at 360 nm, emission at 440 nm) in 20 mM HEPES (pH 7.5), 100 mM NaCl, 2 mM MgCl2, and 1 mM TCEP. 5 µM KRas1-169 was mixed with 10 µM mantdGDP and subsequently with different concentrations of SOS (0.25 µM and 0.5 µM) (Figure 3A; Figure 3—figure supplement 1).

In the case of “KRasG13C-edaGppCp: KRasG13C covalently modified with edaGppCp”, the “downstream signalling (pcRaf, pAkt, pErk, pS6)” value [1] is reported as “activation of the Ras pathway comparable to KRasG13C was observed”, the pErk fold change (pErkT202/Y204; 50 µg, Cell lysate 1) is reported as 4.72 and the pErk fold change (pErkT202/Y204; 50 µg, Cell lysate 2) is reported as 5.16. For the same substance, the “pErk mean fold change” value (pErkT202/Y204; 50 µg) was 4.94, the pErk fold change (pErkT202/Y204; 100 µg, Cell lysate 1) was 7.88 and the pErk fold change (pErkT202/Y204; 100 µg, Cell lysate 2) was 4.30. The “pErk mean fold change” value (pErkT202/Y204; 100 µg) was 6.09, the pErk fold change (pErkT202/Y204; 200 µg, Cell lysate 1) was 7.25 and the pErk fold change (pErkT202/Y204; 200 µg, Cell lysate 2) was 5.27. For the same substance, the “pErk mean fold change” value (pErkT202/Y204; 200 µg) was 6.26, the pErk fold change (pErkT202/Y204; 300 µg, Cell lysate 1) was 7.62 and the pErk fold change (pErkT202/Y204; 300 µg, Cell lysate 2) was 5.84. The “pErk mean fold change” value (pErkT202/Y204; 300 µg) was 6.73, the tAkt fold change (tAkt1; 50 µg, Cell lysate 1) was 1.35 and the tAkt fold change (tAkt1; 50 µg, Cell lysate 2) was 1.53. The “tAkt mean fold change” value (tAkt1; 50 µg) was 1.44, the tAkt fold change (tAkt1; 100 µg, Cell lysate 1) was 1.30 and the tAkt fold change (tAkt1; 100 µg, Cell lysate 2) was 1.69. The “tAkt mean fold change” value (tAkt1; 100 µg) was 1.50, the tAkt fold change (tAkt1; 200 µg, Cell lysate 1) was 1.09 and the tAkt fold change (tAkt1; 200 µg, Cell lysate 2) was 1.67. For the same substance, the “tAkt mean fold change” value (tAkt1; 200 µg) was 1.38, the tAkt fold change (tAkt1; 300 µg, Cell lysate 1) was 0.94 and the tAkt fold change (tAkt1; 300 µg, Cell lysate 2) was 1.47. For the same substance, the “tAkt mean fold change” value (tAkt1; 300 µg) was 1.20, the pS6 fold change (pS6S235/236; 50 µg, Cell lysate 1) was 4.20 and the pS6 fold change (pS6S235/236; 50 µg, Cell lysate 2) was 2.51. The “pS6 mean fold change” value (pS6S235/236; 50 µg) was 3.36, the pS6 fold change (pS6S235/236; 100 µg, Cell lysate 1) was 2.82 and the pS6 fold change (pS6S235/236; 100 µg, Cell lysate 2) was 2.81. The “pS6 mean fold change” value (pS6S235/236; 100 µg) was 2.82, the pS6 fold change (pS6S235/236; 200 µg, Cell lysate 1) was 3.15 and the pS6 fold change (pS6S235/236; 200 µg, Cell lysate 2) was 3.28. For the same substance, the “pS6 mean fold change” value (pS6S235/236; 200 µg) was 3.22, the pS6 fold change (pS6S235/236; 300 µg, Cell lysate 1) was 3.41 and the pS6 fold change (pS6S235/236; 300 µg, Cell lysate 2) was 3.61. For the same substance, the “pS6 mean fold change” value (pS6S235/236; 300 µg) was 3.51, the pAkt fold change (pAktS473; 50 µg, Cell lysate 1) was 2.11 and the pAkt fold change (pAktS473; 50 µg, Cell lysate 2) was 3.13. The “pAkt mean fold change” value (pAktS473; 50 µg) was 2.62, the pAkt fold change (pAktS473; 100 µg, Cell lysate 1) was 4.88 and the pAkt fold change (pAktS473; 100 µg, Cell lysate 2) was 6.30. For the same substance, the “pAkt mean fold change” value (pAktS473; 100 µg) was 5.59, the pAkt fold change (pAktS473; 200 µg, Cell lysate 1) was 6.55 and the pAkt fold change (pAktS473; 200 µg, Cell lysate 2) was 7.78. The “pAkt mean fold change” value (pAktS473; 200 µg) was 7.17, the pAkt fold change (pAktS473; 300 µg, Cell lysate 1) was 6.53 and the pAkt fold change (pAktS473; 300 µg, Cell lysate 2) was 5.20. The “pAkt mean fold change” value (pAktS473; 300 µg) was 5.87, the tErk fold change (tErk; 50 µg, Cell lysate 1) was 1.12 and the tErk fold change (tErk; 50 µg, Cell lysate 2) was 1.11. The “tErk mean fold change” value (tErk; 50 µg) was 1.12, the tErk fold change (tErk; 100 µg, Cell lysate 1) was 1.29 and the tErk fold change (tErk; 100 µg, Cell lysate 2) was 1.14. The “tErk mean fold change” value (tErk; 100 µg) was 1.21, the tErk fold change (tErk; 200 µg, Cell lysate 1) was 1.21 and the tErk fold change (tErk; 200 µg, Cell lysate 2) was 1.17. For the same substance, the “tErk mean fold change” value (tErk; 200 µg) was 1.19, the tErk fold change (tErk; 300 µg, Cell lysate 1) was 1.69 and the tErk fold change (tErk; 300 µg, Cell lysate 2) was 1.50. For the same substance, the “tErk mean fold change” value (tErk; 300 µg) was 1.60, the pcRaf fold change (pcRafS338; 50 µg, Cell lysate 1) was 2.67 and the pcRaf fold change (pcRafS338; 50 µg, Cell lysate 2) was 1.69. For the same substance, the “pcRaf mean fold change” value (pcRafS338; 50 µg) was 2.18, the pcRaf fold change (pcRafS338; 100 µg, Cell lysate 1) was 2.60 and the pcRaf fold change (pcRafS338; 100 µg, Cell lysate 2) was 2.10. For the same substance, the “pcRaf mean fold change” value (pcRafS338; 100 µg) was 2.35, the pcRaf fold change (pcRafS338; 200 µg, Cell lysate 1) was 2.93 and the pcRaf fold change (pcRafS338; 200 µg, Cell lysate 2) was 3.37. For the same substance, the “pcRaf mean fold change” value (pcRafS338; 200 µg) was 3.15, the pcRaf fold change (pcRafS338; 300 µg, Cell lysate 1) was 3.66 and the pcRaf fold change (pcRafS338; 300 µg, Cell lysate 2) was 3.19. For the same substance, the “pcRaf mean fold change” value (pcRafS338; 300 µg) was 3.43 and the SOS-catalysed nucleotide exchange (SOS) was “no SOS-catalysed nucleotide exchange was observed”.
